Assay results published in publication PMC10144514, “Imageological/Structural Study regarding the Improved Pharmacokinetics by ^68Ga-Labeled PEGylated PSMA Multimer in Prostate Cancer” (Pharmaceuticals, 2023).

Tests used:
[1] = In vitro stability of radiotracers in PBS (radiochemical purity by HPLC); type: physicochemical; conditions: incubated in PBS at 37 °C for 2 h
Description: (§1) All solvents and reagents were purchased from Sigma-Aldrich (Shanghai, China) and Shanghai yuanye Bio-Technology (Shanghai, China). DOTA-(1P-PEG4), DOTA-(2P-PEG0), DOTA(DOTA-(2P-PEG4), and (DOTA-(2P-PEG4)2 were synthesized by Bidepharm (Shanghai, China), and characterized by HPLC and mass spectrometry. Radio-HPLC analyses of the radiotracers were carried out using C18 column (5 µm, 4.6 × 250 mm, ZORBAX Eclipse Plus, Agilent, Milford, MA, USA), and analytical grade solvent by solvent A (0.1% trifluoroacetic acid (TFA) in water) and solvent B (0.1% TFA in acetonitrile). A ^68Ge/^68Ga generator was purchased from ITM Medical Isotopes (Munich, Germany). The γ count was measured by a CAPRAC-t γ counter containing a NaI crystal (CAPINTEC, Ramsey, NJ, USA). All in vitro experiments regarding PSMA and the determination of radiotracers’ stability were performed in triplicate to ensure reproducibility.
(§2) […] was eluted from a ^68Ge/^68Ga generator with 0.05M HCl (≈200 MBq/mL). […]
(§3) A total of four kinds of PSMA-related ligands were designed and synthesized. The radiochemical purity of these four ^68Ga/^177Lu-labeled compounds was detected by HPLC (Figure 1) and thin-layer chromatography (Figure S5). […]

[2] = In vitro stability of radiotracers in FBS (radiochemical purity by HPLC); type: in vitro ADME; conditions: incubated in FBS at 37 °C for 2 h
Description: as §1, §2, §3

[3] = Lipophilicity determination (n-octanol/PBS partition); type: physicochemical; conditions: ^68Ga-labeled ligand
Description: Nuclide-labeled ligand (20 μL, ≈50 μCi), PBS (480 μL), and saturated n-octanol (500 μL) were added in a 1 mL EP tube, followed by vortex. Then the mixture was centrifuged at a low temperature (−5 °C) for 10 min until the mixture was separated into the upper and the lower layers. Liquids in the two phases were transferred into EP tubes and measured by the γ-counter. The calculation of the LogP value was based on the following equation: LogP = Lg [(counting of the organic phase − background counting)/(counting of the aqueous phase − background counting)]

[4] = molecular target: T1, human albumin (Homo sapiens, UniProt P02768); assay: In vitro determination of albumin binding (ultrafiltration); type: in vitro ADME; conditions: human serum albumin 20 mg/mL, 37 °C, ^68Ga-labeled
T1 construct: purchased Sigma-Aldrich (Shanghai, China) or Shanghai yuanye Bio-Technology (general reagents statement; not tied to albumin)
T1 sequence (P02768 25-609): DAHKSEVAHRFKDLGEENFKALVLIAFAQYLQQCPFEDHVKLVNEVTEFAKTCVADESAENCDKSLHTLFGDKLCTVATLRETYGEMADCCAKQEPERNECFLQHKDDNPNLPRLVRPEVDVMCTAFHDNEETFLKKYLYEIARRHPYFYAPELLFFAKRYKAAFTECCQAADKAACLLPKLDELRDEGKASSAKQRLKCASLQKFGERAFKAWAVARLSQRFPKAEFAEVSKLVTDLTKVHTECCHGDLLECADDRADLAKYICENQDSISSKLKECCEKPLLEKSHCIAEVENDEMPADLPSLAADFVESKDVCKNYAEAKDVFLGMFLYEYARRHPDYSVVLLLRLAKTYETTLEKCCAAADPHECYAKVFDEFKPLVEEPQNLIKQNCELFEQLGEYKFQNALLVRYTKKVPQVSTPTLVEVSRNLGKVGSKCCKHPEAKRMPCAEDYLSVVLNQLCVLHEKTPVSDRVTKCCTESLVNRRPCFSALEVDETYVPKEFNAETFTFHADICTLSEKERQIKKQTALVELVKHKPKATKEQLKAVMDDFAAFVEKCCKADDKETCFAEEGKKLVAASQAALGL
Description: The albumin-binding rate of each ligand was measured by the γ-counter. ^68Ga-labeled PSMA ligand (≈50 μCi) was added into the human albumin solution (20 mg/mL). The mixture was incubated in a water bath (37 °C) for 30 min and 120 min, followed by ultrafiltration centrifugation for 5 min (10 kD, 10,000 rpm). The compound activities of the uncombined albumin or those retained on the filter membrane were measured by the γ counter, according to which the percentage of serum albumin binding activity (retained on the filter membrane) to total activity was calculated.
The calculation was based on the following equation: (counting of albumin retained on membrane − background counting)/(counting of albumin retained on membrane + counting of filtered liquid − 2* background counting) × 100%, and the average of three sets of data was taken as the final result.

[5] = tested on: PC-3 PIP cells; assay: Cellular uptake and 2-PMPA blocking in PC-3 PIP cells; type: cell-based
Description: Cellular experiments in this study were performed in the PC-3 PIP cell line. PC-3 PIP, a PCa cell line with stably high-expressed PSMA [28], was a gift from Professor Chen from the National University of Singapore. Cells were cultured in ATCC 1640 medium with 10% of FBS, L-glutamine, and antibiotic (37 °C, 5% CO2).
PC-3 PIP cells were cultured in ATCC 1640 medium containing 10% FBS. When cultured to 70–80% confluency, cells were collected and seeded in a 24-well plate. After culturing overnight (37 °C, 5% CO2), the culture medium was replaced by serum-free ATCC 1640 medium (serum-starved cell culture) for 0.5 h. Then nuclide-labeled compounds were added into wells (50 µL, 1 μCi/well) with gentle shakes to ensure they were well distributed. After incubating for 30 min/60 min/120 min, cells at each time point were digested by NaOH and measured by the γ-counter to calculate the uptake rate (n ≥ 3). Cells were co-incubated with glycine (pH = 2.8) for 1 min, and then the procedure above was repeated after dissolving in 1 M NaOH (procedure for internalization). Cells were incubated with PSMA inhibitor (2-PMPA) for blocking assays for 15 min before adding the labeled ligands.

[6] = molecular target: T2, PSMA (PC-3 PIP cells) (Homo sapiens, UniProt Q04609); assay: Competitive binding IC50 against [^68Ga]Ga-PSMA-11 in PC-3 PIP cells; conditions: competition with [^68Ga]Ga-PSMA-11, 1 h
T2 construct: expressed in transfected cells; host or cells: PC-3 PIP cells (PC-3 stably expressing PSMA; gift from Professor Chen, National University of Singapore)
T2 sequence (Q04609 whole entry): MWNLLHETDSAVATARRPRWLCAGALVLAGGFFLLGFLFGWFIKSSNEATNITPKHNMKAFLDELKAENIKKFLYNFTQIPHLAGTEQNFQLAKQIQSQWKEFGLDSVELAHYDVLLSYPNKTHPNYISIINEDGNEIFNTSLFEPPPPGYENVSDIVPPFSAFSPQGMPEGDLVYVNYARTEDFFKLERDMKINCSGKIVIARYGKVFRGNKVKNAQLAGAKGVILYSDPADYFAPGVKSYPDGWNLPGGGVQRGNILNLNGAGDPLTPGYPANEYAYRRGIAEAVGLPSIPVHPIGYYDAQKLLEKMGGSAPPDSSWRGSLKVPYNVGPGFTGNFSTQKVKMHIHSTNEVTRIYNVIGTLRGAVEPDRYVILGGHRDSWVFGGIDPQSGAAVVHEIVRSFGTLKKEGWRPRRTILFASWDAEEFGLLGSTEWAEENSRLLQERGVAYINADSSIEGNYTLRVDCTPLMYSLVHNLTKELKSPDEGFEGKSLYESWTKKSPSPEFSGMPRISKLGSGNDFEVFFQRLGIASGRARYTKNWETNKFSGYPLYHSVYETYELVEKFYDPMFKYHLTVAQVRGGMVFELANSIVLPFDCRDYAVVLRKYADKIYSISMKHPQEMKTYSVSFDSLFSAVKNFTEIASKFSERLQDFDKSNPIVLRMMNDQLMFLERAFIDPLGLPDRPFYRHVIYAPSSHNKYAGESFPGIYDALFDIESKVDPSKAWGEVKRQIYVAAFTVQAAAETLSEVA
Description: PC-3 PIP cells were seeded in 96-well plates in triplicate and cultured to a density of 5* × 10^5 cells per well. [^68Ga]Ga-PSMA-11 was added into wells after serum-starved cell culture (1 μCi/well, ≈171 nmol/L), after which different PBS-diluted competitive ligands were added in wells and cultured for another hour. Then cells were washed with cold PBS twice removing the supernatant. Cells were collected and transferred to test tubes for counting by the γ-counter. IC50 values were analyzed and confirmed by nonlinear regression on GraphPad Prism Software.

[7] = tested on: PC-3 PIP tumor; assay: Biodistribution in PC-3 PIP tumor-bearing mice; type: in vivo; conditions: 2 h p.i.
Description: (§4) PC-3 PIP cells at the logarithmic phase were collected after trypsinization and re-suspended to 5 × 10^7/mL with serum-free medium after removing the supernatant. Mice (6 weeks) were subcutaneously injected with 200 μL of cell suspension, and utilized for small animal PET/CT imaging, SPECT/CT imaging, and biodistribution analysis when tumor volume was ≧100 mm^3. All animal experiments were conducted with the approval of The Southwest Medical University Animal Ethics Committee.
PC-3 PIP tumor-bearing mice (n > 3) were divided into four groups and respectively injected with 0.1 mL (70μCi) of [^68Ga]Ga-DOTA-(1P-PEG4), [^68Ga]Ga-DOTA-(2P-PEG0), [^68Ga]Ga-DOTA-(2P-PEG4), and [^68Ga]Ga-DOTA-(2P-PEG4)2 through the caudal vein. Mice were executed at 30 min/60 min/120 min after injection. Heart, blood, lung, liver, stomach, spleen, kidney, muscle, intestine, bone, salivary gland, and tumor were collected and detected by the γ-counter. The fitted curve was calculated on the basis of standard diluted samples of the initial dosage, and then the percentage of injected dose per gram of tissue (ID%/g) was calculated.

[8] = tested on: PC-3 PIP tumor; assay: Micro animal PET/CT and SPECT/CT imaging of PC-3 PIP tumor-bearing mice; type: in vivo
Description: as §4, with “Committee. Tumor-bearing mice (n = 3) were intravenously injected with 0.1 mL (80μCi) of freshly prepared ^68Ga/^177Lu-labeled PSMA ligands. PET/CT imaging was performed at 0.5/1/2/5 h after injection, and SPECT/CT imaging was performed at 6/24/48 h after injection. The acquired PET/CT and SPECT/CT data were re-constructed by OSEM (ordered subsets expectation maximization).” for “Committee.”

Row | Structure (SMILES) | radiochemical purity (PBS) at 2 h [1] [%] | radiochemical purity (FBS) at 2 h [2] [%] | logP [3] | albumin-binding rate (0.5 h) ([4]; 0.5 h) [%] | albumin-binding rate (2 h) ([4]; 2 h) [%] | uptake rate after co-incubation with PSMA inhibitor 2-PMPA ([5]; PC-3 PIP cells blocked by 2-PMPA, uptake at one hour (Figure 3C)) [%] | 2 h cellular uptake rate ([5]; PC-3 PIP cells, 2 h, ^68Ga-labeled) [%] | IC50 [6] [nM] | 2 h blood uptake value [7] [ID%/g] | tumor uptake on PET/CT imaging ([8]; ^68Ga-labeled, PET/CT at 0.5/1/2/5 h after injection) | kidney uptake on SPECT/CT imaging at 6 h ([8]; ^177Lu-labeled, SPECT/CT, 6 h after injection)
1 | O=C(O)CC[C@H](NC(=O)N[C@@H](CCCCNC(=O)[C@@H](CCC(=O)NCCCC[C@@H](NC(=O)N[C@H](CCC(=O)O)C(=O)O)C(=O)O)NC(=O)CN1CCN(CC(=O)O)CCN(CC(=O)O)CCN(CC(=O)O)CC1)C(=O)O)C(=O)O [[^68Ga]Ga-DOTA-(2P-PEG0), metal not drawn] | 95.78 | 95.21 | -2.84 | 54.84 | 54.29 | 1.00 ± 0.16 | 8.39 ± 3.65 | 455 | 2.78 ± 1.80 | began to decline at 2 h after injection | –
2 | O=C(O)CC[C@H](NC(=O)N[C@@H](CCCCNC(=O)[C@H](Cc1ccc2ccccc2c1)NC(=O)[C@H]1CC[C@H](CNC(=O)CN2CCN(CC(=O)O)CCN(CC(=O)O)CCN(CC(=O)O)CC2)CC1)C(=O)O)C(=O)O [[^177Lu]Lu-PSMA-617, metal not drawn, reference compound] | – | – | – | – | – | – | – | – | – | – | detectable kidney uptake at 6 h
